Results: patent US8796244B2, “Imidazopyridine derivatives as inhibitors of receptor tyrosine kinases” (Astex Therapeutics Ltd, priority 2008, dated 2014)
Structures can show the parent of a compound that is named as a salt. Where two headings read alike, the source gives them in different places.

Experiments:
[1] = system: parental wild-type Ba/F3 cells; assay: Ba/F3 (WT) cell proliferation assay (Alamar Blue); format: cell-based; conditions: Mus musculus; for inhibition at 10 µM / inhibition at 3 µM: BaF3, read-out: BaF3 WT prolif, % inhibition
[2] = system: LP-1 cell line (FGF-1/Heparin induced pERK); assay: Cell-based pERK ELISA, LP-1 cells; conditions: Homo sapiens; for IC50: LP-1, read-out: LP-1 pERK ELISA (μM)
[3] = BaF3, 72 h, read-out: BaF3 WT prolif (μM)
[4] = BaF3, 72 hours, Alamar Blue, read-out: BaF3 WT prolif
[5] = LP-1, read-out: LP-1 pERK ELISA, % inhibition

In the case of O=C(NCC(F)(F)F)Nc1cccc(-c2cnc3cc(-c4cncnc4)ccn23)c1 [Example 42, 1-[3-(7-Pyrimidin-5-yl-imidazo[1,2-a]pyridin-3-yl)-phenyl]-3-(2,2,2-trifluoro-ethyl)-urea hydrochloride], the IC50 [1, 3] is reported as 1.1 µM and the IC50 [2] is reported as 0.27 µM.
O=C(NCC(F)(F)F)Nc1cccc(-c2cnc3cc(-c4ccccn4)ccn23)c1 [Example 3, 1-[3-(7-Pyridin-2-ylimidazo[1,2-a]pyridinyl)phenyl]-3-(2,2,2-trifluoroethyl)urea] was tested, and the IC50 [1, 4] was 0.16 µM and the IC50 [2] was 0.0088 µM.
Compound COc1nccc(-c2ccn3c(-c4cccc(NC(=O)NCC(F)(F)F)c4)cnc3c2)n1 [Example 181] has an IC50 [1, 4] of 0.49 µM and an IC50 [2] of 0.046 µM.
Cn1ccc(C#Cc2ccn3c(-c4cccc(NC(=O)NCC(F)(F)F)c4)cnc3c2)n1 [Example 86, 1-{3-[7-(1-Methyl-1H-pyrazol-3-ylethynyl)-imidazo[1,2-a]pyridin-3-yl]-phenyl}-3-(2,2,2-trifluoro-ethyl)-urea formate] was tested, and the IC50 [1, 3] was 1.9 µM and the IC50 [2] was 0.04 µM.
Work on Cc1nccc(-c2ccn3c(-c4cccc(NC(=O)NCC(F)(F)F)c4)cnc3c2)n1 [Example 61, 1-{3-[7-(2-Methyl-pyrimidin-4-yl)-imidazo[1,2-a]pyridin-3-yl]-phenyl}-3-(2,2,2-trifluoro-ethyl)-urea hydrochloride] yielded an inhibition at 10 µM [1] of 15% and an IC50 [2] of 0.064 µM.
Work on O=C(NCC(F)(F)F)Nc1cccc(-c2cnc3cc(-c4ccc(N5CCCC(O)C5)nn4)ccn23)c1 (centres unmarked) [Example 133, 1-(3-{7-[6-(3-Hydroxy-piperidin-1-yl)-pyridazin-3-yl]-imidazo[1,2-a]pyridin-3-yl}-phenyl)-3-(2,2,2-trifluoro-ethyl)-urea] yielded an inhibition at 3 µM [1] of 34%, an inhibition at 10 µM [1] of 31% and an IC50 [2] of 0.0714 µM.
With O=C(NCC(F)(F)F)Nc1cccc(-c2cnc3cc(-c4nnc(CCN5CCCCC5)s4)ccn23)c1 [Example 22, 1-(3-{7-[5-(2-Piperidin-1-ylethyl)-[1,3,4]thiadiazol-2-yl]imidazo[1,2-a]pyridin-3-yl}phenyl)-3-(2,2,2-trifluoroethyl)urea hydrochloride] the IC50 [1, 3] was 1.1 µM and the IC50 [2] was 0.0044 µM.
Work on Cn1cncc1C#Cc1ccn2c(-c3cc(NC(=O)NCC(F)(F)F)ccc3F)cnc2c1 [Compound 327] yielded an inhibition at 10 µM [1] of 30% and an IC50 [2] of 0.31 µM.
With Cn1nc(-c2ccn3c(-c4cccc(NC(=O)NCC(F)(F)F)c4)cnc3c2)ccc1=O [Example 62, 1-{3-[7-(1-Methyl-6-oxo-1,6-dihydro-pyridazin-3-yl)-imidazo[1,2-a]pyridin-3-yl]-phenyl}-3-(2,2,2-trifluoro-ethyl)-urea hydrochloride] the IC50 [1, 3] was 1.1 µM and the IC50 [2] was 0.11 µM.
Cn1cncc1C#Cc1ccn2c(-c3cccc(NC(=O)NC4CC4)c3)cnc2c1 [Compound 329] showed an inhibition at 10 µM [1] of 31% and an IC50 [2] of 0.23 µM.
Work on CN1CCC(Nc2ccc(-c3ccn4c(-c5cccc(NC(=O)NCC(F)(F)F)c5)cnc4c3)nn2)CC1 [Example 76, 1-(3-{7-[6-(1-Methyl-piperidin-4-ylamino)-pyridazin-3-yl]-imidazo[1,2-a]pyridin-3-yl}-phenyl)-3-(2,2,2-trifluoro-ethyl)-urea tri-hydrochloride] yielded an inhibition at 10 µM [1] of 26% and an IC50 [2] of 0.51 µM.
For Cc1cccc(-c2ccn3c(-c4cccc(NC(=O)NCC(F)(F)F)c4)cnc3c2)n1 [Example 98, 1-{3-[7-(6-Methyl-pyridin-2-yl)-imidazo[1,2-a]pyridin-3-yl]-phenyl}-3-(2,2,2-trifluoro-ethyl)-urea bis-hydrochloride], the IC50 [1, 3] was 0.7 µM and the IC50 [2] was 0.02 µM.
O=C(NCC(F)(F)F)Nc1cccc(-c2cnc3cc(C#CCCO)ccn23)c1 [Example 19, 1-{3-[7-(4-Hydroxybut-1-ynyl)imidazo[1,2-a]pyridin-3-yl]phenyl}-3-(2,2,2-trifluoroethyl)urea] gave an IC50 [1, 4] of 0.55 µM and an IC50 [2] of 0.13 µM.
With O=C(NCC(F)(F)F)Nc1cncc(-c2cnc3cc(Cl)ccn23)c1 [Example 31, 1-[5-(7-Chloroimidazo[1,2-a]pyridin-3-yl)pyridin-3-yl]-3-(2,2,2-trifluoroethyl)urea] the inhibition at 10 µM [1] was 0% and the IC50 [2] was 0.82 µM.
In the case of COCCNc1ccc(-c2ccn3c(-c4cccc(NC(=O)NCC(F)(F)F)c4)cnc3c2)nn1 [Example 80, 1-(3-{7-[6-(2-Methoxy-ethylamino)-pyridazin-3-yl]-imidazo[1,2-a]pyridin-3-yl}-phenyl)-3-(2,2,2-trifluoro-ethyl)-urea hydrochloride], the inhibition at 10 µM [1] is reported as 0% and the IC50 [2] is reported as 0.039 µM.
O=C(NCC(F)(F)F)Nc1cncc(-c2cnc3cc(-c4cnn(C5CCNCC5)c4)ccn23)c1 [Example 152, 1-{5-[7-(1-Piperidin-4-yl-1H-pyrazol-4-yl)-imidazo[1,2-a]pyridin-3-yl]-pyridin-3-yl}-3-(2,2,2-trifluoro-ethyl)-urea] showed an inhibition at 10 µM [1] of 10% and an IC50 [2] of 3.3 µM.
COc1cnc(-c2ccn3c(-c4cccc(NC(=O)NCC(F)(F)F)c4)cnc3c2)nc1 [Example 138, 1-{3-[7-(5-Methoxy-pyrimidin-2-yl)-imidazo[1,2-a]pyridin-3-yl]-phenyl}-3-(2,2 ,2-trifluoro-ethyl)-urea] was tested, and the inhibition at 3 µM [1] was 36% and the IC50 [2] was 0.038 µM.
In the case of Cc1cncc(-c2ccn3c(-c4cccc(NC(=O)NCC(F)(F)F)c4)cnc3c2)n1 [Example 100, 1-{3-[7-(6-Methyl-pyrazin-2-yl)-imidazo[1,2-a]pyridin-3-yl]-phenyl}-3-(2,2,2-trifluoro-ethyl)-urea], the IC50 [1, 4] is reported as 0.97 µM and the IC50 [2] is reported as 0.09 µM.
Compound O=C(NCC(F)(F)F)Nc1cccc(-c2cnc3cc(-c4cnn(C5CCNCC5)c4)ccn23)c1 [Example 4, 1-{3-[7-(1-Piperidin-4-yl-1H-pyrazol-4-yl)-imidazo[1,2-a]pyridin-3-yl]phenyl}-3-(2,2,2-trifluoroethyl)urea hydrochloride] has an inhibition at 10 µM [1] of 51% and an IC50 [2] of 0.077 µM.
With CN(C)CCCOc1ccc(-c2ccn3c(-c4cccc(NC(=O)NCC(F)(F)F)c4)cnc3c2)cn1 [Example 144, 1-(3-{7-[6-(3-Dimethylamino-propoxy)-pyridin-3-yl]-imidazo[1,2-a]pyridin-3-yl}-phenyl)-3-(2,2,2-trifluoro-ethyl)-urea] the IC50 [1, 4] was 3.6 µM and the IC50 [2] was 0.13 µM.
In the case of O=C(NCC(F)(F)F)Nc1cccc(-c2cnc3cc(-c4ccc(=O)[nH]n4)ccn23)c1 [Example 52, 1-{3-[7-(6-Oxo-1,6-dihydropyridazin-3-yl)-imidazo[1,2-a]pyridin-3-yl]-phenyl}-3-(2,2,2-trifluoro-ethyl)-urea], the inhibition at 10 µM [1] is reported as 51% and the IC50 [2] is reported as 0.33 µM.
O=C(NCC(F)(F)F)Nc1cccc(-c2cnc3cc(-c4nccnn4)ccn23)c1 [Example 141, 1-[3-(7-[1,2,4]-Triazin-3-yl-imidazo[1,2-a]pyridin-3-yl)-phenyl]-3-(2,2,2-trifluoro-ethyl)-urea] showed an IC50 [1, 4] of 0.042 µM and an IC50 [2] of 0.11 µM.
Compound CC(C)(C(=O)O)n1cc(-c2ccn3c(-c4cccc(NC(=O)NCC(F)(F)F)c4)cnc3c2)cn1 [Example 5, 2-Methyl-2-[4-(3-{3-[3-(2,2,2-trifluoroethyl)ureido]phenyl}imidazo [1,2-a]pyridin-7-yl)pyrazol-1-yl]propionic acid] has an inhibition at 10 µM [1] of 0% and an inhibition at 1 µM [2, 5] of 45%.
CN(C)CC#Cc1ccn2c(-c3cccc(NC(=O)NCC(F)(F)F)c3)cnc2c1 [Example 14, 1-{3-[7-(3-Dimethylaminoprop-1-ynyl)imidazo[1,2-a]pyridin-3-yl]phenyl}-3-(2,2,2-trifluoroethyl)urea] showed an IC50 [1, 4] of 1.4 µM and an IC50 [2] of 0.1 µM.
Compound NC(=O)c1sccc1-c1ccn2c(-c3cccc(NC(=O)NCC(F)(F)F)c3)cnc2c1 [Example 43, 3-(3-{3-[3-(2,2,2-Trifluoroethyl)-ureido]-phenyl}-imidazo[1,2-a]pyridin-7-yl)-thiophene-2-carboxylic acid amide hydrochloride] has an inhibition at 10 µM [1] of 0% and an IC50 [2] of 0.35 µM.
Cc1ncc(C#Cc2ccn3c(-c4cccc(NC(=O)NCC(F)(F)F)c4)cnc3c2)n1C [Example 64, 1-{3-[7-(2,3-Dimethyl-3H-imidazol-4-ylethynyl)-imidazo[1,2-a]pyridin-3-yl]-phenyl}-3-(2,2,2-trifluoro-ethyl)-urea] was tested, and the IC50 [1, 4] was 2.5 µM and the IC50 [2] was 0.049 µM.
CCOC(=O)C(C)(C)n1cc(-c2ccn3c(-c4cccc(NC(=O)NCC(F)(F)F)c4)cnc3c2)cn1 [Example 2, 2-Methyl-2-[4-(3-{3-[3-(2,2,2-trifluoroethyl)ureido]phenyl}imidazo [1,2-a]pyridin-7-yl)pyrazol-1-yl] propionic acid ethyl ester] was tested, and the inhibition at 10 µM [1] was 12% and the inhibition at 0.003 µM [2, 5] was 62%.
O=C(NCC(F)(F)F)Nc1cccc(-c2cnc3cc(C#Cc4ccsc4)ccn23)c1 [Example 16, 1-[3-(7-Thiophen-3-ylethynylimidazo[1,2-a]pyridinyl)phenyl]-3-(2,2,2-trifluoroethyl)urea] showed an IC50 [1, 4] of 0.83 µM and an IC50 [2] of 0.11 µM.
For O=C(NCC(F)(F)F)Nc1cccc(-c2cnc3cc(C#CCO)ccn23)c1 [Example 26, 1-{3-[7-(3-Hydroxyprop-1-ynyl)imidazo[1,2-a]pyridin-3-yl]phenyl}-3-(2,2,2-trifluoroethyl)urea], the IC50 [1, 4] was 0.77 µM and the IC50 [2] was 0.27 µM.
Compound O=C(NCC(F)(F)F)Nc1cncc(-c2cnc3cc(C#CC4CC4)ccn23)c1 [Example 29, 1-[5-(7-Cyclopropylethynylimidazo[1,2-a]pyridin-3-yl)pyridin-3-yl]-3-(2,2,2-trifluoroethyl)urea] has an IC50 [1, 4] of 3.1 µM and an IC50 [2] of 0.12 µM.
In the case of Nc1nc(-c2ccn3c(-c4cccc(NC(=O)NCC(F)(F)F)c4)cnc3c2)ncc1C(F)(F)F [Example 178], the IC50 [1, 4] is reported as 4.52 µM and the IC50 [2] is reported as 0.018 µM.
With COc1cnc(-c2ccn3c(-c4cccc(NC(=O)NCC(F)(F)F)c4)cnc3c2)cn1 [Example 89, 1-{3-[7-(5-Methoxy-pyrazin-2-yl)-imidazo[1,2-a]pyridin-3-yl]-phenyl}-3-(2,2,2-trifluoro-ethyl)-urea] the IC50 [1, 4] was 0.097 µM and the IC50 [2] was 0.073 µM.
